Assay results as given in PubChem BioAssay AID1259407 (Chemical Carcinogenesis Research Information System (CCRIS), 2018).
The source made the active and inactive calls. How the calls were made is not given here.

Tested on: CCRIS mutagenicity, Ames/micronucleus/aberration tests
Assay: CCRIS mutagenicity studies
[1] = Test System: AMES SALMONELLA TYPHIMURIUM, Strain/Indicator: TA98, Metabolic Activation: NONE, Method: PREINCUBATION
[2] = Test System: AMES SALMONELLA TYPHIMURIUM, Strain/Indicator: TA100, Metabolic Activation: NONE, Method: PREINCUBATION
[3] = Test System: AMES SALMONELLA TYPHIMURIUM, Strain/Indicator: TA100, Metabolic Activation: NONE, Method: STANDARD PLATE
[4] = Test System: AMES SALMONELLA TYPHIMURIUM, Strain/Indicator: TA100, Metabolic Activation: RAT, LIVER, S-9, AROCLOR 1254, Method: STANDARD PLATE
[5] = Test System: AMES SALMONELLA TYPHIMURIUM, Strain/Indicator: TA1535, Metabolic Activation: NONE, Method: STANDARD PLATE
[6] = Test System: AMES SALMONELLA TYPHIMURIUM, Strain/Indicator: TA98, Metabolic Activation: NONE, Method: STANDARD PLATE
[7] = Test System: AMES SALMONELLA TYPHIMURIUM, Strain/Indicator: TA1537, Metabolic Activation: NONE, Method: STANDARD PLATE
[8] = Test System: AMES SALMONELLA TYPHIMURIUM, Strain/Indicator: TA1538, Metabolic Activation: NONE, Method: STANDARD PLATE

For `CC(Cl)CCl` (stereo not drawn), the mutagenic call (End Point: IN VITRO CHROMOSOMAL ABERRATIONS, Test System: CHINESE HAMSTER OVARY CELLS, Metabolic Activation: RAT, LIVER, S-9, AROCLOR 1254) was “active; positive”, the mutagenic call [1] was “inactive; negative” and the mutagenic call (Test System: AMES SALMONELLA TYPHIMURIUM, Strain/Indicator: TA98, Metabolic Activation: RAT LIVER S-9, PHENOBARBITAL AND BETA-NAPHTHOFLAVONE, Method: PREINCUBATION) was “inactive; negative”. For the same compound, the mutagenic call [2] was “inactive; negative”, the mutagenic call [3] was “active; positive” and the mutagenic call (Test System: AMES SALMONELLA TYPHIMURIUM, Strain/Indicator: TA100, Metabolic Activation: RAT LIVER S-9, PHENOBARBITAL AND BETA-NAPHTHOFLAVONE, Method: PREINCUBATION) was “inactive; negative”. The mutagenic call [4] was “active; positive”, the mutagenic call (Test System: AMES SALMONELLA TYPHIMURIUM, Strain/Indicator: TA102, Metabolic Activation: NONE, Method: PREINCUBATION) was “inactive; negative” and the mutagenic call (Test System: AMES SALMONELLA TYPHIMURIUM, Strain/Indicator: TA102, Metabolic Activation: RAT LIVER S-9, PHENOBARBITAL AND BETA-NAPHTHOFLAVONE, Method: PREINCUBATION) was “inactive; negative”. The mutagenic call (Test System: AMES SALMONELLA TYPHIMURIUM, Strain/Indicator: TA104, Metabolic Activation: NONE, Method: PREINCUBATION) was “inactive; negative”, the mutagenic call (Test System: AMES SALMONELLA TYPHIMURIUM, Strain/Indicator: TA104, Metabolic Activation: RAT LIVER S-9, PHENOBARBITAL AND BETA-NAPHTHOFLAVONE, Method: PREINCUBATION) was “inactive; negative” and the mutagenic call (Test System: AMES SALMONELLA TYPHIMURIUM, Strain/Indicator: TA1535, Metabolic Activation: NONE, Method: PREINCUBATION) was “inactive; negative”. The mutagenic call [5] was “active; positive”, the mutagenic call (Test System: AMES SALMONELLA TYPHIMURIUM, Strain/Indicator: TA1535, Metabolic Activation: RAT LIVER S-9, PHENOBARBITAL AND BETA-NAPHTHOFLAVONE, Method: PREINCUBATION) was “inactive; negative” and the mutagenic call (Test System: AMES SALMONELLA TYPHIMURIUM, Strain/Indicator: TA1535, Metabolic Activation: RAT, LIVER, S-9, AROCLOR 1254, Method: STANDARD PLATE) was “active; positive”. The mutagenic call (Test System: AMES SALMONELLA TYPHIMURIUM, Strain/Indicator: TA1537, Metabolic Activation: NONE, Method: PREINCUBATION) was “inactive; negative”, the mutagenic call (Test System: AMES SALMONELLA TYPHIMURIUM, Strain/Indicator: TA1537, Metabolic Activation: RAT LIVER S-9, PHENOBARBITAL AND BETA-NAPHTHOFLAVONE, Method: PREINCUBATION) was “inactive; negative” and the mutagenic call (Test System: E.COLI, Strain/Indicator: WP2UVRA/PKM101, Metabolic Activation: NONE, Method: PREINCUBATION) was “inactive; negative”. The mutagenic call (Test System: E.COLI, Strain/Indicator: WP2UVRA/PKM101, Metabolic Activation: RAT LIVER S-9, PHENOBARBITAL AND BETA-NAPHTHOFLAVONE, Method: PREINCUBATION) was “inactive; negative”, the mutagenic call (Test System: E.COLI, Strain/Indicator: WP2UVRA, Metabolic Activation: NONE, Method: PREINCUBATION) was “inactive; negative” and the mutagenic call (Test System: E.COLI, Strain/Indicator: WP2UVRA, Metabolic Activation: RAT LIVER S-9, PHENOBARBITAL AND BETA-NAPHTHOFLAVONE, Method: PREINCUBATION) was “inactive; negative”.
`c1ccc2c(c1)cc1ccc3cc4ccccc4c4ccc2c1c34` was tested, and the mutagenic call [6] was “inactive; negative”, the mutagenic call (Test System: AMES SALMONELLA TYPHIMURIUM, Strain/Indicator: TA98, Metabolic Activation: RAT, LIVER, S-9, AROCLOR 1254, Method: STANDARD PLATE) was “active; positive” and the mutagenic call [3] was “inactive; negative”. The mutagenic call [4] was “active; positive”, the mutagenic call [7] was “inactive; negative” and the mutagenic call (Test System: AMES SALMONELLA TYPHIMURIUM, Strain/Indicator: TA1537, Metabolic Activation: RAT, LIVER, S-9, AROCLOR 1254, Method: STANDARD PLATE) was “inactive; negative”. The mutagenic call [8] was “inactive; negative”, the mutagenic call (Test System: AMES SALMONELLA TYPHIMURIUM, Strain/Indicator: TA1538, Metabolic Activation: RAT, LIVER, S-9, PHENOBARBITAL, Method: STANDARD PLATE) was “active; positive” and the mutagenic call (Test System: HUMAN H1A1V2 CELLS, Strain/Indicator: TK LOCUS, Metabolic Activation: NONE, Method: SUSPENSION/PLATE) was “active; positive”.
For `Cc1ccc2nc3c(c4c(c5ccccc53)O4)c(C)c2c1`, the mutagenic call [3] was “active; positive” and the mutagenic call [4] was “inactive; negative”.
With `O=c1c(=O)c2c([N+](=O)[O-])ccc3ccc4cccc1c4c32` the mutagenic call [1] was “active; positive”, the mutagenic call (Test System: AMES SALMONELLA TYPHIMURIUM, Strain/Indicator: TA98, Metabolic Activation: RAT, LIVER, S-9, AROCLOR 1254, Method: PREINCUBATION) was “active; positive” and the mutagenic call [2] was “active; positive”. The mutagenic call (Test System: AMES SALMONELLA TYPHIMURIUM, Strain/Indicator: TA100, Metabolic Activation: RAT, LIVER, S-9, AROCLOR 1254, Method: PREINCUBATION) was “active; positive”.
`CCN(C)C(=O)Oc1ccc2c(c1)C1(C)CCN(C)C1N2C` (stereo not drawn) was tested, and the mutagenic call (Test System: AMES SALMONELLA TYPHIMURIUM, Strain/Indicator: TA97, Metabolic Activation: NONE, Method: STANDARD PLATE) was “inactive; negative”, the mutagenic call (Test System: AMES SALMONELLA TYPHIMURIUM, Strain/Indicator: TA97, Metabolic Activation: S-9, Method: STANDARD PLATE) was “inactive; negative” and the mutagenic call [6] was “inactive; negative”. For the same compound, the mutagenic call (Test System: AMES SALMONELLA TYPHIMURIUM, Strain/Indicator: TA98, Metabolic Activation: S-9, Method: STANDARD PLATE) was “inactive; negative”, the mutagenic call [3] was “inactive; negative” and the mutagenic call (Test System: AMES SALMONELLA TYPHIMURIUM, Strain/Indicator: TA100, Metabolic Activation: S-9, Method: STANDARD PLATE) was “inactive; negative”. For the same compound, the mutagenic call (Test System: AMES SALMONELLA TYPHIMURIUM, Strain/Indicator: TA104, Metabolic Activation: NONE, Method: STANDARD PLATE) was “inactive; negative”, the mutagenic call (Test System: AMES SALMONELLA TYPHIMURIUM, Strain/Indicator: TA104, Metabolic Activation: S-9, Method: STANDARD PLATE) was “inactive; negative” and the mutagenic call [5] was “inactive; negative”. The mutagenic call (Test System: AMES SALMONELLA TYPHIMURIUM, Strain/Indicator: TA1535, Metabolic Activation: S-9, Method: STANDARD PLATE) was “inactive; negative”, the mutagenic call [7] was “inactive; negative” and the mutagenic call (Test System: AMES SALMONELLA TYPHIMURIUM, Strain/Indicator: TA1537, Metabolic Activation: S-9, Method: STANDARD PLATE) was “inactive; negative”. For the same compound, the mutagenic call [8] was “inactive; negative” and the mutagenic call (Test System: AMES SALMONELLA TYPHIMURIUM, Strain/Indicator: TA1538, Metabolic Activation: S-9, Method: STANDARD PLATE) was “inactive; negative”.
`CCc1c2ccccc2cc2c3c(ccc12)[C@H](O)[C@@H](O)[C@H]1O[C@@H]31` was tested, and the mutagenic call [1] was “active; positive”, the mutagenic call [2] was “active; positive” and the mutagenic call (Test System: CHINESE HAMSTER V-79, Strain/Indicator: V-79/6-THIOGUANINE, Metabolic Activation: NONE) was “active; positive”.
For `CCCCCCCCCCCCCc1ccccc1`, the mutagenic call [6] was “inactive; negative”, the mutagenic call (Test System: AMES SALMONELLA TYPHIMURIUM, Strain/Indicator: TA98, Metabolic Activation: RAT, LIVER, S-9, AROCLOR 1254 (10%), Method: STANDARD PLATE) was “inactive; negative” and the mutagenic call [3] was “inactive; negative”. The mutagenic call (Test System: AMES SALMONELLA TYPHIMURIUM, Strain/Indicator: TA100, Metabolic Activation: RAT, LIVER, S-9, AROCLOR 1254 (10%), Method: STANDARD PLATE) was “inactive; negative”, the mutagenic call [5] was “inactive; negative” and the mutagenic call (Test System: AMES SALMONELLA TYPHIMURIUM, Strain/Indicator: TA1535, Metabolic Activation: RAT, LIVER, S-9, AROCLOR 1254 (10%), Method: STANDARD PLATE) was “inactive; negative”. For the same compound, the mutagenic call [7] was “inactive; negative”, the mutagenic call (Test System: AMES SALMONELLA TYPHIMURIUM, Strain/Indicator: TA1537, Metabolic Activation: RAT, LIVER, S-9, AROCLOR 1254 (10%), Method: STANDARD PLATE) was “inactive; negative” and the mutagenic call (Test System: CHINESE HAMSTER OVARY, Strain/Indicator: CHO (HGPRT), Metabolic Activation: NONE) was “inactive; negative”. The mutagenic call (Test System: CHINESE HAMSTER OVARY, Strain/Indicator: CHO (HGPRT), Metabolic Activation: RAT, LIVER, S-9, AROCLOR 1254 (1%)) was “inactive; negative”.
